Measurements: patent publication US20070099931A1, “Pharmaceutical dosage forms and compositions” (Wyeth, priority 2004, published 2007)
Converted amounts (≈) assume the structure as drawn.

Columns and labels:
[1] = Solubility in water; type: physicochemical; settings: 25° C.
[2] = target: T1, 5-HT1A receptor (Homo sapiens, UniProt P08908); settings: in vitro; cited from earlier work
T1 sequence (P08908 1-422): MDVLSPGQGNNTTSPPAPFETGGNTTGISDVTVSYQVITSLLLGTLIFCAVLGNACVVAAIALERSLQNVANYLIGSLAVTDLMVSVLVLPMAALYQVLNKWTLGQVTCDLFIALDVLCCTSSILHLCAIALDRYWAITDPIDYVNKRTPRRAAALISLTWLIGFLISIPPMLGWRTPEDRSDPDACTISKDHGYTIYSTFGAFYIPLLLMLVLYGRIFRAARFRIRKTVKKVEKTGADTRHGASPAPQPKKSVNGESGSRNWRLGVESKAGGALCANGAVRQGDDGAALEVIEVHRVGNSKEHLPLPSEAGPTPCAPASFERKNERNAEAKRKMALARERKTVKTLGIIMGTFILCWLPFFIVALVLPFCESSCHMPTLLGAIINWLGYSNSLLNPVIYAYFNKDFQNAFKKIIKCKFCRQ

[3] = test system: hippocampal extracellular 5-HT; settings: cited from earlier work
[4] = test system: glutamate and acetylcholine release; settings: dentate gyrus of the hippocampus; cited from earlier work
[5] = test system: 5-HT1A receptor; settings: chronic administration; cited from earlier work
[6] = test system: 5-HT1A agonist discriminative stimulus cue; settings: 0.01-1 mg/kg im; cited from earlier work
[7] = aged rhesus monkeys, optimal dose 1 mg/kg po; cited from earlier work
[8] = marmosets, 2 mg/kg im; cited from earlier work

In the case of `C[C@H](CN(C(=O)c1ccc(C#N)cc1)c1ccccn1)N1CCN(c2cccc3c2OCCO3)CC1` [lecozotan, 4-cyano-N-{(2R)-2-[4-(2,3-dihydro-benzo[1,4]dioxin-5-yl)-piperazin-1-yl]-propyl}-N-pyridin-2-yl-benzamide], the solubility [1] is given as ~51 mg/mL (≈ 105 mM), the “5-HT1A receptor binding and intrinsic activity” value [2] is given as “potent and selective 5-HT1A receptor antagonist” and the “effect alone on hippocampal extracellular 5-HT” value ([3]; doses 10-fold higher than 0.3 mg/kg sc) is given as “had no effects alone”. The “effect on decrease in hippocampal extracellular 5-HT induced by 8 OH-DPAT (0.3 mg/kg sc)” value ([3]; lecozotan 0.3 mg/kg sc) was “antagonized the decrease in hippocampal extracellular 5-HT”, the “potassium chloride-stimulated release of glutamate and acetylcholine” value [4] was “significantly potentiated” and the “5-HT1A receptor tolerance or desensitization” value [5] was “did not induce 5-HT1A receptor tolerance or desensitization”. The “blockade of the 5-HT1A agonist discriminative stimulus cue” value [6] was “dose-related blockade”, the “substitution for 8-OH-DPAT” value [6] was “did not substitute for 8-OH-DPAT” and the task performance efficiency [7] was “significant improvement in task performance efficiency”. For the same compound, the “learning deficits induced by specific cholinergic lesions of the hippocampus” value [8] was “reversed” and the “learning deficits induced by the glutamatergic antagonist MK-801” value [8] was “reversed”.
